In the supplement of paper PMC10307832:

Compound: Cc1cc([C@@H](C)Nc2ccccc2C(=O)O)c2nc(N3CCOCC3)cc(=O)n2c1 [AZD6482] + CC1(C)CCC(c2ccc(Cl)cc2)=C(CN2CCN(c3ccc(C(=O)NS(=O)(=O)c4ccc(N[C@H](CCN5CCOCC5)CSc5ccccc5)c(S(=O)(=O)C(F)(F)F)c4)cc3)CC2)C1 [Navitoclax] (partner 0.5 µM)
Experiment: relative viability (nuclei count vs DMSO), 5 days (fraction); higher = more cells survive
Conditions: first compound 0.08 µM
Procedure, shortened: (§1)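 Nuclei were stained with Hoechst during a one-step fixation (final 0.05% Triton X-100, 1% formaldehyde, 1 ug/ml Hoechst) carried out 5 days after dosing, then counted on 4× images. The cells, lung cancer lines in 1536-well plates, had been dosed by pin tool the day after seeding with one drug alone or a fixed anchor-drug dose plus five library-drug doses (not always all listed) in √10 steps. Relative viability is the nuclei count in treated wells divided by that in vehicle wells, and each value is the median of duplicate plates.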

Going from NCI-H1355 to NCI-H3122, the relative viability rises from 0.551 to 0.96.

Compared with NCI-H1437, NCI-H1755 is lower in relative viability: 1.06 for the first, 0.833 for the second.

First: NCI-H2023
Second: HCC-15
The relative viability of the first is higher: 0.891 for the first, 0.666 for the second.

Compared with NCI-H1793, PC-14 is higher in relative viability: 0.29 for the first, 0.926 for the second.

Same assay, conditions: first compound 0.253 µM

First: HOP-62
Second: LU99A
The relative viability of the first is higher: 1.17 for the first, 0.757 for the second.

First: BEN
Second: HARA
The relative viability of the first is lower: 0.0744 for the first, 1.16 for the second.

First: HCC-78
Second: NCI-H322M
The relative viability of the first is lower: 0.438 for the first, 1 for the second.

First: LCLC-97TM1
Second: NCI-H2009
The relative viability of the first is lower: 0.257 for the first, 1.14 for the second.

Going from A-427 to NCI-H441, the relative viability falls from 0.903 to 0.59.

Going from NCI-H1734 to NCI-H460, the relative viability rises from 0.604 to 1.08.

First: NCI-H2347
Second: SK-LU-1
The relative viability of the first is lower: 0.423 for the first, 0.74 for the second.

Going from NCI-H1395 to 201T, the relative viability rises from 0.822 to 1.17.

First: NCI-H1915
Second: HCC-827
The relative viability of the first is lower: 0.696 for the first, 1.01 for the second.

First: LXF-289
Second: NCI-H23
The relative viability of the first is higher: 0.955 for the first, 0.696 for the second.

First: CAL-12T
Second: NCI-H1651
The relative viability of the first is higher: 1.29 for the first, 0.917 for the second.

Compared with NCI-H2228, NCI-H1355 is lower in relative viability: 0.963 for the first, 0.697 for the second.

Compared with NCI-H3122, NCI-H1437 is higher in relative viability: 1.01 for the first, 1.13 for the second.

Going from NCI-H1755 to NCI-H2023, the relative viability rises from 0.737 to 0.999.

First: HCC-15
Second: NCI-H1793
The relative viability of the first is higher: 0.616 for the first, 0.23 for the second.

In the case of PC-14, the relative viability is reported as 1.

Same assay, conditions: first compound 0.8 µM

First: HOP-62
Second: LU99A
The relative viability of the first is higher: 1.28 for the first, 0.81 for the second.

Compared with BEN, HARA is higher in relative viability: 0.0638 for the first, 1.13 for the second.

Going from HCC-78 to NCI-H322M, the relative viability rises from 0.433 to 1.07.

First: LCLC-97TM1
Second: NCI-H2009
The relative viability of the first is lower: 0.38 for the first, 1.23 for the second.

Going from A-427 to NCI-H441, the relative viability falls from 0.916 to 0.563.

First: NCI-H1734
Second: NCI-H460
The relative viability of the first is lower: 0.726 for the first, 1.07 for the second.

Going from NCI-H2347 to SK-LU-1, the relative viability rises from 0.445 to 1.04.

Compared with NCI-H1395, 201T is higher in relative viability: 0.803 for the first, 1.19 for the second.

First: NCI-H1915
Second: HCC-827
The relative viability of the first is lower: 0.83 for the first, 1.07 for the second.

Going from LXF-289 to NCI-H23, the relative viability falls from 0.997 to 0.785.

Compared with NCI-H647, CAL-12T is higher in relative viability: 0.929 for the first, 1.29 for the second.

First: NCI-H1651
Second: EPLC-272H
The relative viability of the first is lower: 0.881 for the first, 0.994 for the second.

First: NCI-H2228
Second: NCI-H1355
The relative viability of the first is higher: 0.803 for the first, 0.711 for the second.

Going from NCI-H3122 to NCI-H1437, the relative viability rises from 1.07 to 1.12.

First: NCI-H1755
Second: NCI-H2023
The relative viability of the first is lower: 0.682 for the first, 0.803 for the second.

First: HCC-15
Second: NCI-H1793
The relative viability of the first is higher: 0.626 for the first, 0.251 for the second.

Cell Line PC-14 has a relative viability of 1.04.

Same assay, conditions: first compound 2.53 µM

Going from HOP-62 to LU99A, the relative viability falls from 0.791 to 0.515.

First: BEN
Second: HCC-78
The relative viability of the first is lower: 0.0645 for the first, 0.203 for the second.

Compared with NCI-H322M, LCLC-97TM1 is lower in relative viability: 0.675 for the first, 0.211 for the second.

NCI-H2009 and A-427 are the same in relative viability: 0.757 for the first, 0.757 for the second.

Going from NCI-H441 to NCI-H1734, the relative viability falls from 0.702 to 0.449.

Compared with NCI-H460, NCI-H2347 is lower in relative viability: 0.859 for the first, 0.283 for the second.

Compared with SK-LU-1, NCI-H1395 is lower in relative viability: 0.834 for the first, 0.542 for the second.

Compared with 201T, NCI-H1915 is lower in relative viability: 1.12 for the first, 0.739 for the second.

Compared with HCC-827, LXF-289 is higher in relative viability: 0.899 for the first, 0.954 for the second.

Compared with NCI-H23, NCI-H647 is lower in relative viability: 0.578 for the first, 0.555 for the second.

First: CAL-12T
Second: NCI-H1651
The relative viability of the first is lower: 0.648 for the first, 0.676 for the second.

Going from EPLC-272H to NCI-H2228, the relative viability falls from 0.896 to 0.634.

Going from NCI-H1355 to NCI-H3122, the relative viability rises from 0.588 to 0.894.

Going from NCI-H1437 to NCI-H1755, the relative viability falls from 0.816 to 0.43.

First: NCI-H2023
Second: HCC-15
The relative viability of the first is higher: 0.615 for the first, 0.515 for the second.

With PC-14 the relative viability was 0.879.

Same assay, conditions: first compound 8 µM

Compared with HOP-62, LU99A is lower in relative viability: 1.12 for the first, 0.529 for the second.

First: BEN
Second: HARA
The relative viability of the first is lower: 0.178 for the first, 1.16 for the second.

First: HCC-78
Second: NCI-H322M
The relative viability of the first is lower: 0.306 for the first, 0.798 for the second.

Going from LCLC-97TM1 to NCI-H2009, the relative viability rises from 0.211 to 0.96.

Going from A-427 to NCI-H441, the relative viability falls from 0.947 to 0.632.

Going from NCI-H1734 to NCI-H460, the relative viability falls from 0.776 to 0.694.

Going from NCI-H2347 to SK-LU-1, the relative viability rises from 0.235 to 0.93.

Compared with NCI-H1395, 201T is higher in relative viability: 0.733 for the first, 1.17 for the second.

Going from NCI-H1915 to HCC-827, the relative viability rises from 0.739 to 0.898.

First: LXF-289
Second: NCI-H23
The relative viability of the first is higher: 0.854 for the first, 0.568 for the second.

Going from NCI-H647 to CAL-12T, the relative viability rises from 0.806 to 1.23.

Compared with NCI-H1651, EPLC-272H is higher in relative viability: 0.636 for the first, 0.775 for the second.

First: NCI-H2228
Second: NCI-H1355
The relative viability of the first is higher: 0.616 for the first, 0.61 for the second.

Going from NCI-H3122 to NCI-H1437, the relative viability falls from 0.97 to 0.692.

First: NCI-H1755
Second: NCI-H2023
The relative viability of the first is lower: 0.498 for the first, 0.621 for the second.

First: HCC-15
Second: NCI-H1793
The relative viability of the first is higher: 0.523 for the first, 0.312 for the second.

PC-14 showed a relative viability of 0.96.

Compound: Cc1cc([C@@H](C)Nc2ccccc2C(=O)O)c2nc(N3CCOCC3)cc(=O)n2c1 [AZD6482] + COc1cc2c(Oc3ccc(NC(=O)C4(C(=O)Nc5ccc(F)cc5)CC4)cc3F)ccnc2cc1OCCCN1CCOCC1 [Foretinib] (partner 0.25 µM)
Experiment: as above
Conditions: first compound 0.08 µM
Procedure, shortened: as §1

Compared with HOP-62, LU99A is lower in relative viability: 1.12 for the first, 0.829 for the second.

First: BEN
Second: HARA
The relative viability of the first is lower: 0.675 for the first, 0.811 for the second.

First: HCC-78
Second: NCI-H322M
The relative viability of the first is lower: 0.471 for the first, 0.823 for the second.

Going from LCLC-97TM1 to NCI-H2009, the relative viability rises from 0.854 to 1.12.

Compared with A-427, NCI-H441 is lower in relative viability: 0.959 for the first, 0.852 for the second.

Going from NCI-H1734 to NCI-H460, the relative viability rises from 0.829 to 1.03.

First: NCI-H2347
Second: NCI-H1395
The relative viability of the first is lower: 0.646 for the first, 0.757 for the second.

First: 201T
Second: NCI-H1915
The relative viability of the first is higher: 1.07 for the first, 1.05 for the second.

HCC-827 showed a relative viability of 0.986.
